Assay results as given in patent publication US5437864A, “Method of inhibiting blood coagulation in extracorporeal circulation by inhibiting human tissue factor” (The Scripps Research Institute, priority 1992, dated 1995).
Read-outs that look alike come from different tables or passages of the source. No end group written: not given here.

How the values were obtained:
[1] = molecular target: T1, factor VII/VIIa (Homo sapiens, UniProt P08709); test: Inhibition of huTF-initiated coagulation by polypeptide analogs of huTFh; type: biochemical; settings: for inhibition of huTF-initiated coagulation, dose-response (FIG. 12): non-lipidated polypeptides, various concentrations
T1 construct: from tissue
T1 sequence (P08709 61-466): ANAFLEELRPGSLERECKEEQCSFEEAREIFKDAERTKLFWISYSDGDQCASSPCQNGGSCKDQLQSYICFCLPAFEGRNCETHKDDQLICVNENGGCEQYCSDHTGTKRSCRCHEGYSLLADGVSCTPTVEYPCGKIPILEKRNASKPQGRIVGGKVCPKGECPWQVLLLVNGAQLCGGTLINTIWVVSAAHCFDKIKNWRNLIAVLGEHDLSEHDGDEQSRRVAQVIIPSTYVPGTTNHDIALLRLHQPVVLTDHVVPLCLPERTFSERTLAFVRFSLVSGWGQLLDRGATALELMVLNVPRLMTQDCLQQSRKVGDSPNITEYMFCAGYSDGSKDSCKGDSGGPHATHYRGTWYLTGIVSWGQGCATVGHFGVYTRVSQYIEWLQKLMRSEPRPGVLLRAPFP
Method: The ability of the polypeptides of the present invention to inhibit huTF-initiated coagulation were assayed by first incubating the polypeptides in the presence of factor VII/VIIa and calcium ions, and then adding this mixture to factor VII/VIIa-deficient plasma and evaluating clotting times.
Human factor VII/VIIa was isolated as described in Example 3. Ten microliters of a solution of 200 ng of this isolated factor VII/VIIa per ml of HBS/BSA was added to a solution comprising 100 ul of HBS, 20 ul of 25 mM CaCl2, and with 100 ul of TBS/Triton containing synthetic polypeptide. Numerous admixtures were so prepared which contained varying concentrations of the polypeptide and were then maintained at 37 degrees C. for 15 minutes. Relipidated tissue factor prepared as described in Example 4 was diluted in HBS/BSA such that 10 ul would yield a coagulation time of approximately 45 seconds when tested in the coagulation assay described in Example 2. The above maintained admixture was further admixed with this 10 ul dilution of relipidated huTF, with 100 ul of 25 mM CaCl2, and with 100 ul of factor VII/VIIa-deficient plasma (George King Bio-Medical, Inc., Overland Park, Kans.) diluted 1 part plasma to 1.5 parts HBS. The clotting time was then determined and plotted as described in Example 2. A prolongation of clotting time was taken to indicate inhibition of coagulation by the synthetic polypeptide. Percent inhibition was calculated as described in Example 10. Polypeptides producing at least a 30% inhibition of coagulation were considered huTFh binding site polypeptide analogs, i.e., polypeptides p26-49, p146-167 and p161-189 as shown in section I of Table 4.
Lipidated synthetic peptides were prepared in the manner described in Example 4 for relipidation of isolated huTF except that synthetic polypeptide was substituted for isolated huTF. The ratio 52 to 1 of lipid to polypeptide (w/w) was routinely utilized. Lipidated polypeptides producing at least 30% inhibition of coagulation were considered huTFh binding site polypeptide analogs, when present in lipidated form, i.e., those polypeptides shown in section II of Table 4.
The results of this study are shown in FIG. 12 and indicate that p24-35 and p152-169 are capable of inhibiting 45% and 25% respectively, of the huTF-initiated coagulation when utilized at 10 uM concentrations. It should be noted that in this study background inhibitions such as for those peptides indicated by a closed circle in FIG. 12 were lower than the study shown in Table 4. As a result, polypeptides producing at least a 20% inhibition of coagulation at a concentration of 10 uM in this study were considered huTF binding site polypeptide analogs.

[2] = molecular target: T1, factor VII/VIIa; test: Inhibition of factor X activation on J82 cells by huTFh polypeptides; type: cell-based; settings: for Optical Density: O.D. at 405 nm of factor Xa chromogenic product, 50 ul polypeptide solution at 100 uM, PBS control 0.960, no factor VII 0.005, significant if about 0.500 or less
Method: Fifty microliters (ul) of a solution containing a huTF polypeptide analog at 100 uM […] in TBS was added to each well of a 96-well of a 96-well flat bottom polystyrene assay plate. Then to each well was admixed 25 ul of a solution containing factor VII/VIIa isolated as described in Example 3 at a concentration of 1 nm in TBS, further admixed with 25 ul of 20 mM calcium chloride in TBS and the resulting admixture is maintained at room temperature for 30 minutes.
Human bladder cell carcinoma J82 cells were obtained from the American Type Culture Collection (ATCC HTB 1; Rockville, Md.) and cultured as described by Fair et al., J. Biol. Chem., 262:11692-11698 (1987) which methods are incorporated herein by reference.
5×10^4 J82 cells are suspended into 50 ul of TBS and admixed to each well of the polystyrene assay plate after the above maintenance period. Immediately thereafter 25 ul of factor X, isolated as described by Fair et al., J. Biol. Chem., 262:11692-11698 (1987), at a concentration of 100 nM in TBS and 50 ul of Xa chromogenic substrate S-2222 (1 mg/ml in TBS) were admixed, and the resulting admixture was maintained for two minutes at room temperature to form a chromogenic reaction product containing solution.
The amount of chromogenic product formed was quantitated by measuring the amount of optical density (O.D.) at 405 nanometers (nm) using a V-max 96 well spectrophotometer (Molecular Devices, Mountain View, Calif.). Controls with PBS in place of polypeptide or with no factor VII added were also run to establish the maximum and minimum possible O.D. values.

[3] = system: baboon TF; settings: Taylor et al., J. Clin. Invest. (1987); cited from earlier work
[4] = system: TF; settings: Pitlick, J. Clin. Invest., 55:175 (1975); cited from earlier work
[5] = phospholipidated peptides, 10 μM
[6] = non-phospholipidated peptides, 10 μM, read-out: Inhibition (Percent Inhibition of huTF-initiated coagulation)
[7] = Example 17 study (FIG. 12), non-lipidated, 10 uM, read-out: inhibition of huTF-initiated coagulation
[8] = phospholipidated peptides, 10 μM, read-out: Inhibition (Percent Inhibition of huTF-initiated coagulation)
[9] = non-phospholipidated peptides, 10 μM

In the case of “H--TKSGDWKSKCFYTTDTECDLTDEIVKDVKQTY--OH (H-TKSGDWKSKCFYTTDTECDLTDEIVKDVKQTY-OH; cysteine pairing not given here) [p40-71]”, the “inhibition of huTF-initiated coagulation, dose-response (FIG. 12)” value (shortened to “inhibition … (FIG. 12)”) [1] is reported as “no substantial inhibition”, the “Inhibition (Percent Inhibition of huTF-initiated coagulation)” value [1, 5] is reported as 65.0% and the “Optical Density” value [2] is reported as 0.814 ± 0.053.

For H-DSPVECMGQEKGEFREIFYIIGA-OH [p204-226], the inhibition at 10 µM [1, 6] was 20% and the “Optical Density” value [2] was 0.715 ± 0.042.

Work on “H-ECDLTDEIVKDVKQTY-OH [p56-71, H--ECDLTDEIVKDVKQTY--OH]” yielded an inhibition at 10 µM [1, 6] of 25%.

For H-EPKPVNQVYTVQISTKSGDWKSKC-OH [p26-49], the “binding to factor VII/VIIa and inhibition of factor X activation” value [2] was “bind to factor VII/VIIa and inhibit its ability to form a TF:VII/VIIa complex that can activate factor X” and the “Optical Density” value [2] was 0.437 ± 0.020.

In the case of “H-EWEPKPVNQVYT-OH [p24-35, H--EWEPKPVNQVYT--OH]”, the inhibition at 10 µM [1, 7] is reported as 45%, the “binding to factor VII/VIIa and inhibition of factor X activation” value [2] is reported as “bind to factor VII/VIIa and inhibit its ability to form a TF:VII/VIIa complex that can activate factor X” and the “Optical Density” value [2] is reported as 0.477 ± 0.017.

Substance “H-IYTLYYWKSSSSGKKTAK-OH [p152-169, H--IYTLYYWKSSSSGKKTAK--OH]” has an inhibition at 10 µM [1, 7] of 25%.

In the case of “H-LARVFSYPAGNVESTGSAGEPLYENSPEFTPYLC-OH [p72-104]”, the “inhibition … (FIG. 12)” value [1] is reported as “no substantial inhibition”, the inhibition at 10 µM [1, 6] is reported as 25% and the “Optical Density” value [2] is reported as 0.781 ± 0.047.

With H-QAVIPSRTVNRKSTDSPVEC-OH [p190-209] the inhibition at 10 µM [1, 6] was 20% and the “Optical Density” value [2] was 0.625 ± 0.031.

In the case of “H-RDVFGKDLIYTLYYWK-OH [p144-159, H--RDVFGKDLIYTLYYWK--OH]”, the “binding to factor VII/VIIa and inhibition of factor X activation” value [2] is reported as “bind to factor VII/VIIa and inhibit its ability to form a TF:VII/VIIa complex that can activate factor X” and the “Optical Density” value [2] is reported as 0.507 ± 0.053.

With “H-SGTTNTVAAYNLTWKSTNFKTILEWEPKPV-OH [p1-30]” the inhibition at 10 µM [1, 6] was 25%, the inhibition at 10 µM [1, 8] was 81% and the “Optical Density” value [2] was 1.098 ± 0.028.

For “H-SSSGKKTAKTNTNEFLIDVDKGENYCFSV-OH [p161-189]”, the “inhibition … (FIG. 12)” value [1] was “no substantial inhibition”, the inhibition at 10 µM [1, 6] was ≥ 30% and the inhibition at 10 µM [1, 8] was 94%.

In the case of “H-TKVNVTVEDERTLVRRNNTFLSLRDVFGKDLIYTL-OH [p121-155]”, the inhibition at 10 µM [1, 6] is reported as 10%, the inhibition at 10 µM [1, 8] is reported as 55% and the “Optical Density” value [2] is reported as 0.889 ± 0.067.

For H-VFGKDLIYTLYYWKSSSSGKKT-OH [p146-167], the inhibition at 10 µM [1, 8] was 80%, the “binding to factor VII/VIIa and inhibition of factor X activation” value [2] was “bind to factor VII/VIIa and inhibit its ability to form a TF:VII/VIIa complex that can activate factor X” and the “Optical Density” value [2] was 0.004 ± 0.001.

For “H-YENSPEFTPYLETNLGQPTIQSFEQVGTKV-OH [p94-123]”, the “inhibition … (FIG. 12)” value [1] was “no substantial inhibition”, the inhibition at 10 µM [1, 6] was 20% and the inhibition at 10 µM [1, 8] was 93.7%. The “Optical Density” value [2] was 0.818 ± 0.055.

In the case of “H-YWKSSSSGKKTAK-OH [p157-169, H--YWKSSSSGKKTAK--OH]”, the “binding to factor VII/VIIa and inhibition of factor X activation” value [2] is reported as “bind to factor VII/VIIa and inhibit its ability to form a TF:VII/VIIa complex that can activate factor X” and the “Optical Density” value [2] is reported as 0.389 ± 0.035.

In the case of activated protein C, the “coagulopathic response and lethal effects of LD100 concentrations of E. coli in baboons” value [3] is given as “prevents the coagulopathic response and lethal effects”.

For concanavalin A, the “inhibition of TF activity” value [4] is listed as “inhibits TF activity”.

With “p1-18: huTFh polypeptide; designation represents included residues of FIG. 1; sequence not printed (SGTTNTVAAYNLTWKSTN; UniProt P13726 33-50, looked up, fragment)” the “Optical Density” value [2] was 1.007 ± 0.087.

For “p11-28: huTFh polypeptide; designation represents included residues of FIG. 1; sequence not printed (NLTWKSTNFKTILEWEPK; UniProt P13726 43-60, looked up, fragment)”, the “Optical Density” value [2] was 0.687 ± 0.071.

In the case of “p26-40: phospholipidated huTFh polypeptide analog of Table 4; sequence not printed; probably p26-49 (EPKPVNQVYTVQIST; also: phospholipidated (position not given here); UniProt P13726 58-72, looked up, fragment)”, the “Inhibition (Percent Inhibition of huTF-initiated coagulation)” value [1, 5] is reported as 83.0%.

For “p40-49: huTFh polypeptide analog of Table 4; sequence not printed; probably p41-49 (TKSGDWKSKC; UniProt P13726 72-81, looked up, fragment)”, the “Inhibition (Percent Inhibition of huTF-initiated coagulation)” value [1, 9] was 25.0%.

With “p41-71: huTFh polypeptide analog of Table 4; sequence not printed; probably p40-71 (KSGDWKSKCFYTTDTECDLTDEIVKDVKQTY; UniProt P13726 73-103, looked up, fragment)” the “Inhibition (Percent Inhibition of huTF-initiated coagulation)” value [1, 9] was 25.0%.

For “p50-71: phospholipidated huTFh polypeptide analog of Table 4; sequence not printed; probably p56-71 (FYTTDTECDLTDEIVKDVKQTY; also: phospholipidated (position not given here); UniProt P13726 82-103, looked up, fragment)”, the “Inhibition (Percent Inhibition of huTF-initiated coagulation)” value ([1]; phospholipidated peptides, 30 μM) was 73.3%.

In the case of “p161-190: huTFh polypeptide of Table 10; sequence not printed; probably p161-189 (SSSGKKTAKTNTNEFLIDVDKGENYCFSVQ; UniProt P13726 193-222, looked up, fragment)”, the “Optical Density” value [2] is reported as 0.600 ± 0.023.

In the case of “p244-263: huTFh polypeptide of Table 10; sequence not printed; probably p245-263 (KCRKAGVGQSWKENSPLNVS; UniProt P13726 276-295, looked up, fragment)”, the “Optical Density” value [2] is reported as 0.619 ± 0.047.
